# Experimental data published in publication PMC8320704 (Journal of medicinal chemistry, 2015).
# pIC50: −log10 of the molar value. Where “and” joins values, the source holds several entries; their conditions need not be identical. Equal values may be shown once. Read-outs that look alike come from different tables or passages of the source.
# Experiments:
# HIV-1 IN (3′-P) [1] = target: T1, HIV-1 IN (3′-P) (Human immunodeficiency virus type 1 group M subtype B, UniProt P04585); assay: HIV-1 IN gel-based assay, 3′-processing; format: biochemical
# HIV-1 IN (ST) [2] = target: T2, HIV-1 IN (ST) (Human immunodeficiency virus type 1 group M subtype B, UniProt P04585); assay: HIV-1 IN gel-based assay, strand transfer; format: biochemical
# HIV-1 RT RNase H = HIV-1 RT RNase H (Human immunodeficiency virus type 1 group M subtype B, UniProt P04585); assay: HIV-1 RT RNase H inhibition; format: biochemical
# HIV-1 IN (3′-P) [3] = target: T1, HIV-1 IN (3′-P); conditions: read-out: 3′-P IC50, previously reported compounds; cited from earlier work
# HIV-1 IN (ST) [4] = target: T2, HIV-1 IN (ST); conditions: read-out: ST IC50, previously reported compound; cited from earlier work
Structure (SMILES),pIC50 (HIV-1 IN (3′-P) [1]),pIC50 (HIV-1 IN (ST) [2]),"pIC50 (HIV-1 RT RNase H; RNase H IC50, Table 1)","pIC50 (HIV-1 RT RNase H; RNase H IC50, text)",pIC50 (HIV-1 IN (3′-P) [3]),pIC50 (HIV-1 IN (ST) [4])
"CCOC(=O)/C(O)=C/C(=O)c1cn(Cc2ccc([N+](=O)[O-])cc2)c2ccccc2c1=O [10i, 4-[1-(4-Nitrophenyl)methyl-4(1H)-quinolinon-3-yl]-2-hydroxy-4-oxo-2-butenoic Acid Ethyl Ester]",< 4.43,< 4.43,,,,
"CCOC(=O)/C(O)=C/C(=O)c1cn(Cc2ccc(Cl)cc2)c2ccccc2c1=O [10f, 4-[1-(4-Chlorophenyl)methyl-4(1H)-quinolinon-3-yl]-2-hydroxy-4-oxo-2-butenoic Acid Ethyl Ester]",< 4.43,< 4.43,,,,
"CCOC(=O)/C(O)=C/C(=O)c1cn(Cc2ccc(Cl)cc2Cl)c2ccccc2c1=O [10o, 4-[1-(2,4-Dichlorophenyl)methyl-4(1H)-quinolinon-3-yl]-2-hydroxy-4-oxo-2-butenoic Acid Ethyl Ester]",,< 3.95,< 4.30,,,
"O=C(O)/C(O)=C/C(=O)c1cn(CCCCc2ccccc2)c2ccccc2c1=O [11x, 2-Hydroxy-4-oxo-4-(4-oxo-1-(4-phenylbutyl)-1,4-dihydroquinolin-3-yl)but-2-enoic Acid]",< 3.48,> 6.35,,,,
O=C(O)/C(O)=C/C(=O)c1cn(Cc2ccc(F)cc2)c2cc(Cl)c(Cl)cc2c1=O [compound 8],,,,4.38,< 4.30,7.48 and 7.40
"CCOC(=O)/C(O)=C/C(=O)c1cn(Cc2ccc(OC)cc2)c2ccccc2c1=O [10h, 4-[1-(4-Methoxyphenyl)methyl-4(1H)-quinolinon-3-yl]-2-hydroxy-4-oxo-2-butenoic Acid Ethyl Ester]",< 4.43,< 4.43,,,,
"CCOC(=O)/C(O)=C/C(=O)c1cn(Cc2ccc(C)cc2C)c2ccccc2c1=O [10q, 4-[1-(2,4-Dimethylphenyl)methyl-4(1H)-quinolinon-3-yl]-2-hydroxy-4-oxo-2-butenoic Acid Ethyl Ester]",,< 3.95,< 4.30,,,
